Tests used:
[1] = target: T1, N. fowleri peptidylprolyl isomerase (NfPPI) (Naegleria fowleri, UniProt A0A2H4A315); assay: X-ray crystal structure; type: binding; details: active site; Fig 4C legend calls the 6MKE ligand FK506-AN
T1 construct: gene NF0084240; N-terminal His tag (vector pBG1861), E. coli BL21(DE3)R3 Rosetta; 119 residues; FKBP family; chains A-D in crystal
T1 sequence (A0A2H4A315 1-119): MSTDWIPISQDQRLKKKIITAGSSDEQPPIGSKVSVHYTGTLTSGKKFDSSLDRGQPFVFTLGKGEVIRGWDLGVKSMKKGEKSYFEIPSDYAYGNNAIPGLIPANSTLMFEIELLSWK

[2] = target: T2, N. fowleri S-adenosyl-L-homocysteine hydrolase (NfSAHH) (Naegleria fowleri, UniProt A0A1Z0YU84); assay: X-ray crystal structure; type: binding
T2 construct: gene NF0035640; N-terminal His tag (vector pBG1861), E. coli BL21(DE3)R3 Rosetta; 472 residues; homo-tetramer in asymmetric unit
T2 sequence (A0A1Z0YU84 1-472): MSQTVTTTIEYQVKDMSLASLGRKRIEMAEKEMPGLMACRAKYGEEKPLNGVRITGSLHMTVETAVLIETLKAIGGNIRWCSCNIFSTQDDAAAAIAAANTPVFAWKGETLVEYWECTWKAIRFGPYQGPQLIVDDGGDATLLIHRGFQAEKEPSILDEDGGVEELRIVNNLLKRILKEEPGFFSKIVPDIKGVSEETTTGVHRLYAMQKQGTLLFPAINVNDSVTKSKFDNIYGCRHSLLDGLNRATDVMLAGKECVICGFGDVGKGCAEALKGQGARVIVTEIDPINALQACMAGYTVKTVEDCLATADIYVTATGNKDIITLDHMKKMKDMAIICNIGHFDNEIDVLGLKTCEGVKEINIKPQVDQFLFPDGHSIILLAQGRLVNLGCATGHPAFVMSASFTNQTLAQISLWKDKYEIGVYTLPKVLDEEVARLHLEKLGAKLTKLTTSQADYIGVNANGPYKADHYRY

Which X-ray crystal structure [1] does the source give for `C=CC[C@@H]1/C=C(\C)C[C@H](C)C[C@H](OC)[C@H]2O[C@@](O)(C(=O)C(=O)N3CCCC[C@H]3C(=O)O[C@H](/C(C)=C/[C@@H]3CC[C@@H](O)[C@H](OC)C3)[C@H](C)[C@@H](O)CC1=O)[C@H](C)C[C@@H]2OC` [FK506] here?
Its X-ray crystal structure is “Quaternary structure of NfPPI (6MKE)”.

Which X-ray crystal structure ([2]; with adenosine, 2.0 Å omit map shown) does the source give for `NC(=O)c1ccc[n+]([C@@H]2O[C@H](COP(=O)(O)OP(=O)(O)OC[C@H]3O[C@@H](n4cnc5c(N)ncnc54)[C@H](O)[C@@H]3O)[C@@H](O)[C@H]2O)c1` [NAD] here?
Its X-ray crystal structure is “contains the adenosine substrate and NAD cofactors bound to the active site”.

How did the X-ray crystal structure ([2]; with NAD, active site, closed conformation) turn out when `Nc1ncnc2c1ncn2[C@@H]1O[C@H](CO)[C@@H](O)[C@H]1O` [adenosine] was run?
The X-ray crystal structure was “contains the adenosine substrate and NAD cofactors bound to the active site”.

— paper PMC7990177, “Naegleria fowleri: Protein structures to facilitate drug discovery for the deadly, pathogenic free-living amoeba” (PLoS ONE, 2021)
